Entries after “also recorded” stand apart in the source; their conditions may differ. No end group written: not given here.
Tested on: iPSC-derived cortical neurons from MPS IIIA and MPS IIIC patients
Experiment: Synaptic protein markers and BDNF in iPSC-derived cultured cortical neurons (immunocytochemistry)
Format: cell-based, human
Settings: 10 μM in culture; MPS IIIA and MPS IIIC patient neurons
Description: Generation of iPSC lines MPS III patient fibroblast lines were obtained from the Coriell Institute for Medical Research (NJ, USA), or from the hospitals were the patients were diagnosed/followed with the informed consent of patient's families. The fibroblasts were propagated in Dulbecco's Modified Eagle Medium (DMEM, ThermoFisher) with 10% fetal bovine serum (FBS) and 1% Antibiotic-Antimycotic (15240062, ThermoFisher) and tested for mycoplasma. The cells were further reprogrammed into iPSCs at the CHUSJ iPSC Platform using a non-integrating CytoTune-Sendai viral reprograming kit (A16517, Thermo Fisher Scientific, MA, USA) according to the manufacture's protocol. Two colonies for each iPSC line were used for further proliferation, iPSCs were expanded and maintained on six-well plates coated with Matrigel mTeSR™ Plus medium at 37° C., in 5% CO2/5% O2 atmosphere following the medium manufacturer's protocol. […]
Induction of cortical NPC and cortical neurons iPSCs were differentiated into cortical forebrain committed neural precursor cells (NPCs) by dual SMAD inhibition by passaging iPSCs over to poly-L-ornithine (PO)/laminin coated dishes. […] After induction for 3 weeks the cells were analyzed by ICH for the presence of neuronal markers PAX6, and TUBB3, confirmation of disease-specific enzymatic deficiencies and lysosomal storage phenotype (increased size of LAMP2+ puncta by ICH). […]

Substance: AVP6: N-terminally acetylated Semax, a nootropic peptide having the amino acid sequence of MEHFPGP (SEQ ID NO:1) (Ac-MEHFPGP)
- levels of BDNF+, VGLUT1+ and PSD-95+ puncta: significantly increased
- levels of VGLUT1+, PSD-95+, SYN1+ and BDNF+ puncta: rescues reduced levels of synaptic markers; also recorded: significantly increased
